Laboratory results as given in patent publication US8952024B2, “Herbicidal pyrimidone derivatives” (E I du Pont de Nemours and Company, priority 2009, dated 2015).

Legend:
Type in all cases: in vivo
[1] = tested on: rice (Oryza sativa); test: Test B flooded paddy test; settings: for Plant response rating, Rice: Flood (flooded paddy test), 13 to 15 days
Procedure, shortened: (§1)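 Post-flood paddy application: compounds are introduced into water 3 cm deep over the soil, reaching plants at the 2-leaf stage. The water level is maintained, and after 13–15 days under greenhouse conditions, response is judged by eye relative to controls, where 100 means complete control.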

[2] = tested on: ducksalad (Heteranthera limosa); test: Test B flooded paddy test; settings: for Plant response rating, Ducksalad: Flood (flooded paddy test), 13 to 15 days
Procedure, shortened: as §1

[3] = tested on: umbrella sedge (Cyperus difformis); test: Test B flooded paddy test; settings: for Plant response rating, Sedge, Umbrella: Flood (flooded paddy test), 13 to 15 days
Procedure, shortened: as §1

[4] = tested on: barnyardgrass (Echinochloa crus-galli); test: Test B flooded paddy test; settings: for Plant response rating, Barnyardgrass: Flood (flooded paddy test), 13 to 15 days
Procedure, shortened: as §1

[5] = tested on: cocklebur (Xanthium strumarium); test: Test B pre-/postemergence plant response; settings: Preemergence
Procedure, shortened: (§2)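 Steps: sow seed in loam–sand soil and spray preemergence, or grow plants in peat-based medium to 1–4 leaves (2–18 cm) and spray postemergence; formulation is non-phytotoxic solvent plus surfactant; hold in greenhouse 13–15 days; score visually vs controls, 0 = no effect, 100 = complete control.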

[6] = tested on: Surinam grass (Brachiaria decumbens); test: Test B pre-/postemergence plant response
Procedure, shortened: as §2

[7] = tested on: Italian ryegrass (Lolium multiflorum); test: Test B pre-/postemergence plant response
Procedure, shortened: as §2

[8] = tested on: blackgrass (Alopecurus myosuroides); test: Test B pre-/postemergence plant response
Procedure, shortened: as §2

[9] = tested on: corn (Zea mays); test: Test B pre-/postemergence plant response
Procedure, shortened: as §2

[10] = tested on: soybean (Glycine max); test: Test B pre-/postemergence plant response
Procedure, shortened: as §2

[11] = tested on: bermudagrass (Cynodon dactylon); test: Test B pre-/postemergence plant response
Procedure, shortened: as §2

[12] = tested on: morningglory (Ipomoea coccinea); test: Test B pre-/postemergence plant response
Procedure, shortened: as §2

[13] = tested on: ragweed (common ragweed, Ambrosia elatior); test: Test B pre-/postemergence plant response
Procedure, shortened: as §2

[14] = 250 g ai/ha, flooded paddy test, visual rating on 0 to 100 scale (0 no effect, 100 complete control) after 13 to 15 days
[15] = 62 g ai/ha, scale of 0 to 100 where 0 is no effect and 100 is complete control
[16] = 125 g ai/ha, scale 0 to 100, 0 is no effect, 100 is complete control
[17] = Flood, 31 g ai/ha, scale 0 to 100 (0 no effect, 100 complete control)
[18] = Postemergence, 31 g ai/ha, 0 to 100 scale (0 no effect, 100 complete control)
[19] = Postemergence, 62 g ai/ha, scale 0 to 100 (0 no effect, 100 complete control)
[20] = Postemergence, 250 g ai/ha, scale 0 to 100 (0 no effect, 100 complete control), 13 to 15 days
[21] = Preemergence, 31 g ai/ha, scale 0 to 100 (0 no effect, 100 complete control)
[22] = Preemergence, 62 g ai/ha, scale 0 to 100 (0 no effect, 100 complete control)
[23] = Preemergence, 125 g ai/ha, scale 0 to 100, 0 no effect, 100 complete control
[24] = Preemergence, 250 g ai/ha, 0 to 100 scale
[25] = Postemergence, 125 g ai/ha, scale 0 to 100 (0 no effect, 100 complete control)

In the case of `COc1ccc(-n2c(-c3ccccc3)ncc(C(=O)C3=C(O)CCCC3=O)c2=O)cc1OC` [Compound 218], the “Plant response rating, Flood, Rice” value [1, 14] is reported as 15, the “Plant response rating, Rice” value [1, 15] is reported as 0 and the “Plant response rating, Rice” value [1, 16] is reported as 10. For the same molecule, the “Rice plant response rating” value [1, 17] was 0, the “Plant response rating, Flood, Ducksalad” value [2, 14] was 95 and the “Plant response rating, Ducksalad” value [2, 15] was 80. For the same molecule, the “Plant response rating, Ducksalad” value [2, 16] was 85, the “Ducksalad plant response rating” value [2, 17] was 75 and the “Plant response rating, Flood, Sedge, Umbrella” value [3, 14] was 85. The “Plant response rating, Sedge, Umbrella” value [3, 15] was 80, the “Plant response rating, Sedge, Umbrella” value [3, 16] was 85 and the “Sedge, Umbrella plant response rating” value [3, 17] was 75. The “Plant response rating, Flood, Barnyardgrass” value [4, 14] was 40, the “Plant response rating, Barnyardgrass” value [4, 15] was 0 and the “Plant response rating, Barnyardgrass” value [4, 16] was 30. For the same molecule, the “Barnyardgrass plant response rating” value [4, 17] was 0, the “Plant response rating, Cocklebur” value ([5]; 62 g ai/ha, scale 0 to 100 (0 no effect, 100 complete control)) was 0 and the “Plant response rating, Cocklebur” value ([5]; 125 g ai/ha, scale 0 to 100, 0 no effect, 100 complete control) was 90. For the same molecule, the “Cocklebur plant response rating” value ([5]; 250 g ai/ha, 0 to 100 scale) was 100, the “Plant response rating, Surinam Grass” value [6, 18] was 75 and the “Plant response rating, Surinam Grass” value [6, 19] was 80. For the same molecule, the “Plant response rating, Surinam Grass” value [6, 20] was 90, the “Plant response rating, Surinam Grass” value [6, 21] was 10 and the “Plant response rating, Surinam Grass” value [6, 22] was 65. For the same molecule, the “Plant response rating, Surinam Grass” value [6, 23] was 98, the “Surinam Grass plant response rating” value [6, 24] was 100 and the “Plant response rating, Ryegrass, Italian” value [7, 18] was 30. For the same molecule, the “Plant response rating, Ryegrass, Italian” value [7, 19] was 40, the “Plant response rating, Ryegrass, Italian” value [7, 20] was 70 and the “Plant response rating, Ryegrass, Italian” value [7, 21] was 0. The “Plant response rating, Ryegrass, Italian” value [7, 22] was 0, the “Plant response rating, Ryegrass, Italian” value [7, 23] was 5 and the “Ryegrass, Italian plant response rating” value [7, 24] was 5. For the same molecule, the “Plant response rating, Blackgrass” value [8, 18] was 0, the “Plant response rating, Blackgrass” value [8, 19] was 0 and the “Plant response rating, Blackgrass” value [8, 25] was 5. For the same molecule, the “Plant response rating, Blackgrass” value [8, 20] was 5, the “Plant response rating, Blackgrass” value [8, 21] was 0 and the “Plant response rating, Blackgrass” value [8, 22] was 0. The “Plant response rating, Blackgrass” value [8, 23] was 0, the “Blackgrass plant response rating” value [8, 24] was 20 and the “Plant response rating, Corn” value [9, 18] was 0. For the same molecule, the “Plant response rating, Corn” value [9, 19] was 10, the “Plant response rating, Corn” value [9, 25] was 75 and the “Plant response rating, Corn” value [9, 20] was 80. For the same molecule, the “Plant response rating, Corn” value [9, 21] was 0, the “Plant response rating, Corn” value [9, 22] was 0 and the “Plant response rating, Corn” value [9, 23] was 0. The “Corn plant response rating” value [9, 24] was 0, the “Plant response rating, Soybean” value [10, 18] was 85 and the “Plant response rating, Soybean” value [10, 19] was 100. The “Plant response rating, Soybean” value [10, 20] was 100, the “Plant response rating, Soybean” value [10, 21] was 0 and the “Plant response rating, Soybean” value [10, 22] was 65. The “Plant response rating, Soybean” value [10, 23] was 80, the “Soybean plant response rating” value [10, 24] was 90 and the “Plant response rating, Bermudagrass” value [11, 18] was 70. For the same molecule, the “Plant response rating, Bermudagrass” value [11, 19] was 80, the “Plant response rating, Bermudagrass” value [11, 25] was 95 and the “Plant response rating, Bermudagrass” value [11, 20] was 100. For the same molecule, the “Plant response rating, Bermudagrass” value [11, 21] was 98, the “Plant response rating, Bermudagrass” value [11, 22] was 100 and the “Plant response rating, Bermudagrass” value [11, 23] was 100. The “Bermudagrass plant response rating” value ([11]; Preemergence, 250 g ai/ha, 0 to 100 scale, 0 no effect, 100 complete control) was 100, the “Plant response rating, Morningglory” value [12, 18] was 70 and the “Plant response rating, Morningglory” value [12, 19] was 70. The “Plant response rating, Morningglory” value [12, 25] was 80, the “Plant response rating, Morningglory” value [12, 20] was 98 and the “Plant response rating, Morningglory” value [12, 21] was 0. For the same molecule, the “Plant response rating, Morningglory” value [12, 22] was 0, the “Plant response rating, Morningglory” value [12, 23] was 15 and the “Morningglory plant response rating” value [12, 24] was 65. The “Plant response rating, Ragweed” value [13, 18] was 95, the “Plant response rating, Ragweed” value [13, 19] was 95 and the “Plant response rating, Ragweed” value [13, 20] was 100. For the same molecule, the “Plant response rating, Ragweed” value [13, 21] was 85, the “Plant response rating, Ragweed” value [13, 22] was 95 and the “Plant response rating, Ragweed” value [13, 23] was 98. For the same molecule, the “Ragweed plant response rating” value [13, 24] was 100.
